Consider 23 molecules from ChEMBL document CHEMBL1155384 (Bioorg Med Chem Lett, 2010).

Assay [1] in a line: Antiproliferative activity against human RS4:11 cells having FLT3-ITD mutation after 72 hrs by WST8 assay. In kind it is functional, cell-based. The following applies: RS4-11, 72 h. In general terms: Formazan colour is commonly taken as a measure of viable cells.
Assay [2] has as its target T1, Receptor-type tyrosine-protein kinase FLT3 (Homo sapiens, UniProt P36888).
T1 sequence (P36888 whole entry): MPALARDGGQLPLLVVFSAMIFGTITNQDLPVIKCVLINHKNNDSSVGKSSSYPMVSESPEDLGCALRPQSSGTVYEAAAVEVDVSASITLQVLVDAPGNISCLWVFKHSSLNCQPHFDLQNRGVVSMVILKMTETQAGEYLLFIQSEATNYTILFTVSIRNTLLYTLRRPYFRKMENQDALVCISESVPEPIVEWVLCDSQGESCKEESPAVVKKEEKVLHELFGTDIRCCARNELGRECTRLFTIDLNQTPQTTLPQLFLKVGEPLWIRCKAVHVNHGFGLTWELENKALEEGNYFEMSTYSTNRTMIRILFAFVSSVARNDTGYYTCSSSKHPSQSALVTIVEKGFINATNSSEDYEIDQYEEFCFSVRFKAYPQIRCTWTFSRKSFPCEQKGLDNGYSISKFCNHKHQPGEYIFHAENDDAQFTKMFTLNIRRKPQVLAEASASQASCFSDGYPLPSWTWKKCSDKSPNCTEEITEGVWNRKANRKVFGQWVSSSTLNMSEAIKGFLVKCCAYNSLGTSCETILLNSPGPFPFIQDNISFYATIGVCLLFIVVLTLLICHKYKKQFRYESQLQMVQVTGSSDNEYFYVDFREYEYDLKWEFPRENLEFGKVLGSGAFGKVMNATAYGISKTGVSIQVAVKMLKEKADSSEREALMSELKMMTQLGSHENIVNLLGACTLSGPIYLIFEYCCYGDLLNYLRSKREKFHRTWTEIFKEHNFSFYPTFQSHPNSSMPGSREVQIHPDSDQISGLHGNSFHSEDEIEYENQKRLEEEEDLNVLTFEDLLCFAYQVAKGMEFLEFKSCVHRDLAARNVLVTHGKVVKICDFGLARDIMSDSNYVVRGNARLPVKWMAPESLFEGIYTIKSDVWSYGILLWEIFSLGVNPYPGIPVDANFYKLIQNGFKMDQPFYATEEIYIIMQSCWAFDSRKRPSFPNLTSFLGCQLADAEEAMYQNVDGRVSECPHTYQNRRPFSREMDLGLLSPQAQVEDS
In words: Inhibition of FLT3 by HTRF assay.

For assay [3], the system named is MV4-11. In words: Antiproliferative activity against […] FLT3 expressing human MV411 cells after 72 hrs by WST8 assay. In kind it is functional, cell-based. To be noted: MV4-11, 72 h.
Assay [4] concerns the target Vascular endothelial growth factor receptor 2 (Homo sapiens, UniProt P35968). Briefly: Inhibition of VEGFR2 by HTRF assay. Background: Time-resolved FRET reads energy transfer from a long-lived donor to a nearby acceptor.
The target of assay [5] is Hepatocyte growth factor receptor (Homo sapiens, UniProt P08581). Briefly: Inhibition of Met by HTRF assay.
Sequence of Hepatocyte growth factor receptor (P08581 whole entry): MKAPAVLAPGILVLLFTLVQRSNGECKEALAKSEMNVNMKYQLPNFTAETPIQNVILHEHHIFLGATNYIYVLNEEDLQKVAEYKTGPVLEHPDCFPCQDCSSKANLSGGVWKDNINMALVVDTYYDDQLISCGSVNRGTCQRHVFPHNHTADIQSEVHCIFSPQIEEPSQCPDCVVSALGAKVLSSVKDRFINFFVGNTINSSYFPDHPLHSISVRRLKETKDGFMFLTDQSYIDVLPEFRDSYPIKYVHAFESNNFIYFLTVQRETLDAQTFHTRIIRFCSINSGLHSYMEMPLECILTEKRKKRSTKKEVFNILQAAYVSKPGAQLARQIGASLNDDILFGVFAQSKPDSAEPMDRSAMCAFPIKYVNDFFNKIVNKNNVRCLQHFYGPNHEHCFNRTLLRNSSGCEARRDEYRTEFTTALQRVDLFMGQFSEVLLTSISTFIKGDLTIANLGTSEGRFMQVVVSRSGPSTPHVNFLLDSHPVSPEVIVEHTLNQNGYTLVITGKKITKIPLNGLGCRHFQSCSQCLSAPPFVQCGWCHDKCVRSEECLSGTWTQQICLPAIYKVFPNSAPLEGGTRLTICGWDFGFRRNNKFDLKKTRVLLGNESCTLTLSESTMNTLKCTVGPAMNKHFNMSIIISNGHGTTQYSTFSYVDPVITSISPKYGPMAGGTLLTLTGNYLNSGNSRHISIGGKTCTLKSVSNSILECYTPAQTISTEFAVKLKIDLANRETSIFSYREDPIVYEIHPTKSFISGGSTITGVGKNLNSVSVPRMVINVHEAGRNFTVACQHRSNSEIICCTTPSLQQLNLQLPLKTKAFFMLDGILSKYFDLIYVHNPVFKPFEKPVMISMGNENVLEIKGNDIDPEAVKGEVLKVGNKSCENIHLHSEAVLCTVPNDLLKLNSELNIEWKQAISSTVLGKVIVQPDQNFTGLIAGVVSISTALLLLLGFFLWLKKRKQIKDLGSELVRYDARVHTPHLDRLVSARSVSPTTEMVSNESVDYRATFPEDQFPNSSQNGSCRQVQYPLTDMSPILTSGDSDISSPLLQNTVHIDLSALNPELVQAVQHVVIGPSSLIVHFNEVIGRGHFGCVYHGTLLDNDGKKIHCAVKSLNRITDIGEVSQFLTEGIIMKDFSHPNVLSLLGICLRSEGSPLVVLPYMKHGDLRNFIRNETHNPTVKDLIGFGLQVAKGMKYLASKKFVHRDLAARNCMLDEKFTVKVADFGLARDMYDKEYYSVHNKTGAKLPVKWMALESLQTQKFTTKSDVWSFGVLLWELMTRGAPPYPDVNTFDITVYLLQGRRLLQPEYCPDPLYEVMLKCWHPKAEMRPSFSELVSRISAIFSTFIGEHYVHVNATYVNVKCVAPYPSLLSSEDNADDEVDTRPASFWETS
The target in assay [6] is Macrophage-stimulating protein receptor (Homo sapiens, UniProt Q04912). Briefly: Inhibition of Ron by HTRF assay.
In assay [7] the target is Epidermal growth factor receptor (Homo sapiens, UniProt P00533). Briefly: Inhibition of EGFR by HTRF assay.
Sequence of Epidermal growth factor receptor (P00533 whole entry): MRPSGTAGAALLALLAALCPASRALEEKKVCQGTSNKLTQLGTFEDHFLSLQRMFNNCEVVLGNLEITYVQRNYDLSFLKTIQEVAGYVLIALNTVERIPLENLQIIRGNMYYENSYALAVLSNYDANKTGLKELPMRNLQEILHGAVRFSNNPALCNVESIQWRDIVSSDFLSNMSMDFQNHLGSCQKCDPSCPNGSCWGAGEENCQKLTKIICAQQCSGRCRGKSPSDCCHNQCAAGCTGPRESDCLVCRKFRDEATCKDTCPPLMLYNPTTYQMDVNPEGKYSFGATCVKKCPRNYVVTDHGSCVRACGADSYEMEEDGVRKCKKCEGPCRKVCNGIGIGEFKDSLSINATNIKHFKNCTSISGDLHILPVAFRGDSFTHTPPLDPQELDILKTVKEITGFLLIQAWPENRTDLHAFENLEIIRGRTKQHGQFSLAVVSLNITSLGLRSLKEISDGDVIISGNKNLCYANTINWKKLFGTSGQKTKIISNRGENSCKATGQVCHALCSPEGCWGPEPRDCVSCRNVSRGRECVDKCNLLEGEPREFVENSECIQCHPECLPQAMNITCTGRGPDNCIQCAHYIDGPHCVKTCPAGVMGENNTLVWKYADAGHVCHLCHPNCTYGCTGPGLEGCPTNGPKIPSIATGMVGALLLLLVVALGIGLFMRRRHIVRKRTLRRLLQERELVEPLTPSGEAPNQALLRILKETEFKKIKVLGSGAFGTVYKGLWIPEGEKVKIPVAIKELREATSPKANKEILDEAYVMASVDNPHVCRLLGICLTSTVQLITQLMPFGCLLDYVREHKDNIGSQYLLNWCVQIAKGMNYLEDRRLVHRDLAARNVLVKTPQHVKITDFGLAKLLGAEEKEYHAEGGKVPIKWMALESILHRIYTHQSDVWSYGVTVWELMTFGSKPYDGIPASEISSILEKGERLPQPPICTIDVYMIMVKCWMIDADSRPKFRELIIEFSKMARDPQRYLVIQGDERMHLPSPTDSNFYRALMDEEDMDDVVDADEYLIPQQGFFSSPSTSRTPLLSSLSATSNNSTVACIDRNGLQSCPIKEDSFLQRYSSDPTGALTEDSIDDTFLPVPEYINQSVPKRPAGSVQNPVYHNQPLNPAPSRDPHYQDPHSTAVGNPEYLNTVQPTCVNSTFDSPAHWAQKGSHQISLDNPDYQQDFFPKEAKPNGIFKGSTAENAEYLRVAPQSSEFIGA
A further assay concerns the target Insulin receptor (Homo sapiens, UniProt P06213). Briefly: Inhibition of insulin receptor by HTRF assay.
For the next assay, the target named is T2, Aurora kinase A (Homo sapiens, UniProt O14965).
T2 sequence (O14965 whole entry): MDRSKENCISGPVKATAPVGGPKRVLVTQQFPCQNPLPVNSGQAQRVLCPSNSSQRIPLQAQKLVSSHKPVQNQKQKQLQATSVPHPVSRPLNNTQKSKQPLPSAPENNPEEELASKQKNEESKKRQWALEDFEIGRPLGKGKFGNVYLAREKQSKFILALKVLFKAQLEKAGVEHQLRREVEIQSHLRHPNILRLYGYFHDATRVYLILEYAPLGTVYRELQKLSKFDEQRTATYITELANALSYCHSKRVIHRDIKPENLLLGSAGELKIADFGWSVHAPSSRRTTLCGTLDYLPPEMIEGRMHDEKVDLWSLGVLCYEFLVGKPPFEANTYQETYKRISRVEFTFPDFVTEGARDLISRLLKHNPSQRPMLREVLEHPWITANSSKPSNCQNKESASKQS
Briefly: Inhibition of Aurora A by HTRF assay.

Assay [8] has as its system MV4-11. Briefly: Cell cycle arrest in human MV411 cells assessed as accumulation at G0/G1 phase at 0.01 uM after 48 hrs by propidium iodide assay. It counts as functional.
The subject of assay [9] is MV4-11. In words: Cell cycle arrest in human MV411 cells assessed as accumulation at G2/M phase at 0.01 uM after 48 hrs by propidium iodide assay. In kind it is functional.
In assay [10] the test system is MV4-11. In words: Cell cycle arrest in human MV411 cells assessed as accumulation at S phase at 0.01 uM after 48 hrs by propidium iodide assay. It counts as functional.
The subject of assay [11] is MV4-11. In words: Cell cycle arrest in human MV411 cells assessed as accumulation at sub-G1 phase at 0.01 uM after 48 hrs by propidium iodide assay. It counts as functional.
Assay [12] concerns MV4-11. Briefly: Cell cycle arrest in human MV411 cells assessed as accumulation at G0/G1 phase at 1 uM after 48 hrs by propidium iodide assay. In kind it is functional.
In assay [13] the test system is MV4-11. Briefly: Cell cycle arrest in human MV411 cells assessed as accumulation at G0/G1 phase at 0.1 uM after 48 hrs by propidium iodide assay. It counts as functional.
The subject of assay [14] is MV4-11. Briefly: Cell cycle arrest in human MV411 cells assessed as accumulation at G2/M phase at 0.1 uM after 48 hrs by propidium iodide assay. It counts as functional.
The subject of assay [15] is MV4-11. Briefly: Cell cycle arrest in human MV411 cells assessed as accumulation at S phase at 0.1 uM after 48 hrs by propidium iodide assay. In kind it is functional.
The test system of assay [16] is MV4-11. Briefly: Cell cycle arrest in human MV411 cells assessed as accumulation at sub-G1 phase at 0.1 uM after 48 hrs by propidium iodide assay. In kind it is functional.
In assay [17] the test system is MV4-11. In words: Cell cycle arrest in human MV411 cells assessed as accumulation at G2/M phase at 1 uM after 48 hrs by propidium iodide assay. In kind it is functional.
The subject of assay [18] is MV4-11. Briefly: Cell cycle arrest in human MV411 cells assessed as accumulation at S phase at 1 uM after 48 hrs by propidium iodide assay. It counts as functional.
Assay [19] concerns MV4-11. In words: Cell cycle arrest in human MV411 cells assessed as accumulation at sub-G1 phase at 1 uM after 48 hrs by propidium iodide assay. It counts as functional.

Sequence of Insulin receptor (P06213 28-758 limits assumed): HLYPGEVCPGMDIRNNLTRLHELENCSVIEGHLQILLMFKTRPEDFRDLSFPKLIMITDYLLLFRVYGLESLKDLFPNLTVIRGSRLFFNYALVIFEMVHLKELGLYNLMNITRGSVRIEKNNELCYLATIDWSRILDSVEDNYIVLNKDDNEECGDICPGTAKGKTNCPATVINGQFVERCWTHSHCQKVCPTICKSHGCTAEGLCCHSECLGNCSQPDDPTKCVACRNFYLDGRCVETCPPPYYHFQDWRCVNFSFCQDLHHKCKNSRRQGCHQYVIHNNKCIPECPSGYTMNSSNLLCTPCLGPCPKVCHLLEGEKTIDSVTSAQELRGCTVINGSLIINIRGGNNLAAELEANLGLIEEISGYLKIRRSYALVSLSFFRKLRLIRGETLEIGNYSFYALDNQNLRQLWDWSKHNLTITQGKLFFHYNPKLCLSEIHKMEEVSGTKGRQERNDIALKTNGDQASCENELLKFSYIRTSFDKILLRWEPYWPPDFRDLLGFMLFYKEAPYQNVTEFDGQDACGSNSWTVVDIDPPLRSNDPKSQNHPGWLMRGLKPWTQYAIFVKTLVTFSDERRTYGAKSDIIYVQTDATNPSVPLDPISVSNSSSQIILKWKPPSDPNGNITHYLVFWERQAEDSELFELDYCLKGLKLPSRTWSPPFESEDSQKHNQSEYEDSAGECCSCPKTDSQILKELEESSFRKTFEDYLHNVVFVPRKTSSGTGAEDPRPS
Sequence of Insulin receptor (P06213 763-1382 limits assumed): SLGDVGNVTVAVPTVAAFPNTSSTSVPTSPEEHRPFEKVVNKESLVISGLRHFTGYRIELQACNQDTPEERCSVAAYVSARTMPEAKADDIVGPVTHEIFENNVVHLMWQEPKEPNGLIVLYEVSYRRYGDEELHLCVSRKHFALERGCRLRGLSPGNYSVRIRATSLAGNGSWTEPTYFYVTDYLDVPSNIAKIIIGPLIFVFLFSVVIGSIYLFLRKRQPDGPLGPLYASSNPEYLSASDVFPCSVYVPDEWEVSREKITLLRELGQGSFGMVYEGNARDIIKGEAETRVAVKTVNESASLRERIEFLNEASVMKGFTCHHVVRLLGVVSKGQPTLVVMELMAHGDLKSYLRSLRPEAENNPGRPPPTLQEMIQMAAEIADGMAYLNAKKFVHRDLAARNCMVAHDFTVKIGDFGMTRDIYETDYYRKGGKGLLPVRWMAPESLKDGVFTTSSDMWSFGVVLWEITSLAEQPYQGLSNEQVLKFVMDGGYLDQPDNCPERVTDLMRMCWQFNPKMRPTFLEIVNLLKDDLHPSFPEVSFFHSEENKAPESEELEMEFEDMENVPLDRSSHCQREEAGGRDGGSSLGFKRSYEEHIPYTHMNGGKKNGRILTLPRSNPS

As usually defined, the IC50 is the concentration that inhibits the measured activity by half. For `Cc1ccc2c(c1)/C(=C1/Nc3ccccc3/C1=N\O)C(=O)N2`, the half-maximal inhibitory concentration (IC50) in assay [1] worked out at 8560 nM; in assay [2], 28 nM; in the assay on MV4-11 [3], 260 nM.

For `Cc1cc(Cl)cc2c1NC(=O)/C2=C1\Nc2ccccc2\C1=N/O`, the IC50 (in assay [1]; in [2]; in the assay with MV4-11 [3]) was more than 10000 nM in each case.

For `O=C1Nc2ccc(F)cc2/C1=C1/Nc2ccccc2/C1=N\O`, the IC50 in assay [1] was 2210 nM; in assay [2] it was 15 nM; in assay [4], 1530 nM; in [5], more than 10000 nM; in assay [6] it was more than 10000 nM; in [7], more than 10000 nM. Besides, the IC50 is more than 10000 nM against Insulin receptor, 1270 nM at Aurora kinase A and 72 nM with MV4-11 [3]. Also, the Activity with MV4-11 [8] came to 61.62%; in the assay with MV4-11 [9], 11.53%; with MV4-11 [10], 16.55%; in the assay with MV4-11 [11], 9.24%; in the assay on MV4-11 [12], 58.06%; in the assay on MV4-11 [13] it was 57.44%. Also, the Activity is listed as 2.91% in the assay with MV4-11 [14]; 6.42% in the assay with MV4-11 [15]; 32.76% in the assay with MV4-11 [16]; 1.05% in the assay with MV4-11 [17]; 2.85% in the assay with MV4-11 [18]; 37.73% with MV4-11 [19].

As to `O=C1C(c2c(O)[nH]c3ccc(F)cc23)=Nc2ccccc21`, the IC50 in assay [1] is more than 10000 nM; in assay [2], 10100 nM; with MV4-11 [3], more than 10000 nM.

As for `Nc1ccn([C@@H]2O[C@H](CO)[C@@H](O)[C@@H]2O)c(=O)n1` [CYTARABINE], the IC50 in [1] was determined as 260 nM; in the assay with MV4-11 [3], 3360 nM.

For `Nc1ccc2c(c1)/C(=C1/Nc3ccccc3/C1=N\O)C(=O)N2`, the figures for the IC50 (in [1]; in [2]; in the assay on MV4-11 [3]) were 3340 nM, 128 nM and 1650 nM, respectively.

As for `O=C1Nc2ccc(Cl)cc2/C1=C1/Nc2ccccc2/C1=N\O`, the IC50 in [1] was determined as 1580 nM; in assay [2], 82 nM; in the assay with MV4-11 [3], 220 nM.

In the case of `O=C1C(c2c(O)[nH]c3ccc(S(=O)(=O)O)cc23)=Nc2ccccc21`, the figures for the IC50 (in assay [1]; in assay [2]; with MV4-11 [3]) were more than 10000 nM, 280 nM and more than 10000 nM, respectively.

With `C[C@]12O[C@H](C[C@]1(O)CO)n1c3ccccc3c3c4c(c5c6ccccc6n2c5c31)CNC4=O` [LESTAURTINIB], the values for the IC50 (in [1]; in the assay on MV4-11 [3]) were 120 nM and 9 nM, respectively.

For the molecule `O=C1C(c2c(O)[nH]c3ccc(Cl)cc23)=Nc2ccccc21`, the results for the IC50 (in [1]; in assay [2]; with MV4-11 [3]) were more than 10000 nM, 212 nM and 7000 nM, respectively.

Consider `CC(=O)N1/C(=C2\C(=O)Nc3ccccc32)C(=O)c2ccccc21`, for which the 50% inhibitory concentration (IC50) (in assay [1]; in assay [2]; in the assay on MV4-11 [3]) was more than 10000 nM throughout.

With `O=C1Nc2ccc([N+](=O)[O-])cc2/C1=C1/Nc2ccc(Br)cc2/C1=N/O`, the 50% inhibitory concentration (IC50) is 160 nM in [1], more than 10000 nM in [2] and more than 270 nM in the assay with MV4-11 [3].

For `Cc1ccc2[nH]c(O)c(C3=Nc4ccccc4C3=O)c2c1`, the IC50 is more than 10000 nM in [1], 209 nM in assay [2] and 1540 nM in the assay with MV4-11 [3].

As to `O=Nc1c(-c2c(O)[nH]c3ccc([N+](=O)[O-])cc23)[nH]c2ccccc12`, the figures for the IC50 (in assay [1]; in assay [2]; with MV4-11 [3]) were 560 nM, 62 nM and 450 nM, respectively.

`Nc1ccc2c(c1)/C(=C1/Nc3ccccc3C1=O)C(=O)N2`: the IC50 was determined as 4670 nM in [1], 359 nM in [2] and 4300 nM in the assay on MV4-11 [3].

With `O=C1C(c2c(O)[nH]c3ccc([N+](=O)[O-])cc23)=Nc2ccccc21`, the IC50 (in assay [1]; in assay [2]; in the assay on MV4-11 [3]) was more than 10000 nM each time.

`O=C1Nc2ccc(S(=O)(=O)O)cc2/C1=C1/Nc2ccccc2/C1=N\O`: the figures for the IC50 (in [1]; in assay [2]; with MV4-11 [3]) were more than 10000 nM, 9 nM and more than 10000 nM, respectively.

Regarding `O=C1Nc2ccccc2/C1=C1/Nc2ccccc2C1=O` [INDIRUBIN], the IC50 (in assay [1]; in assay [2]; with MV4-11 [3]) was more than 10000 nM each time.

With `Cc1cc(C)c2c(c1)/C(=C1/Nc3ccccc3/C1=N\O)C(=O)N2`, the IC50 was more than 10000 nM in assay [1], 952 nM in assay [2] and 2400 nM with MV4-11 [3].

As to `O=C1Nc2ccc(OC(F)(F)F)cc2/C1=C1/Nc2ccccc2/C1=N\O`, the IC50 in assay [1] is 3360 nM; in [2], more than 10000 nM; with MV4-11 [3], more than 3550 nM.

For `O=Nc1c(-c2c(O)[nH]c3ccc(I)cc23)[nH]c2ccccc12`, the results for the IC50 (in [1]; in [2]; in the assay with MV4-11 [3]) were 1450 nM, 418 nM and 360 nM, respectively.

Consider `O=Nc1c(-c2c(O)[nH]c3ccccc23)[nH]c2ccccc12` [INDIRUBIN-3-MONOXIME], for which the IC50 in assay [1] was 3560 nM; in assay [2] it was 33 nM; in the assay with MV4-11 [3], 150 nM.

For `O=C1C(c2c(O)[nH]c3ccc(I)cc23)=Nc2ccccc21`, the concentration for half-maximal inhibition (IC50) is more than 10000 nM in assay [1], 4720 nM in assay [2] and 4790 nM in the assay with MV4-11 [3].
